Measured values: patent publication US9555039B2, “Piperidine derivatives and compositions for the inhibition of nicotinamide phosphoribosyltransferase (NAMPT)” (Forma TM, LLC., priority 2011, dated 2017)

Molecular target: T1, Recombinant His-tagged NAMPT (Homo sapiens, UniProt P43490)
T1 construct: His; host or cells: E. coli
Test: Biochemical inhibition assay: NAMPT enzymatic reaction, NMN quantified by mass spectrometry
Conditions: 33 nM NAMPT, 1 μM NAM, 100 μM PRPP, 2.5 mM ATP, 30 minutes at room temperature; read-out: Biochem IC50
Procedure: Biochemical Inhibition Assay
NAMPT Protein Purification
Recombinant His-tagged NAMPT was produced in E. coli cells, purified over a Ni column, and further purified over a size-exclusion column by XTAL Biostructures.
The NAMPT Enzymatic Reaction
The NAMPT enzymatic reactions were carried out in Buffer A (50 mM Hepes pH 7.5, 50 mM NaCl, 5 mM MgCl2, and 1 mM THP) in 96-well V-bottom plates. The compound titrations were performed in a separate dilution plate by serially diluting the compounds in DMSO to make a 100× stock. […] The compound and enzyme mix was incubated for 15 minutes at room temperature, then 10 μL of 10× substrate and co-factors in Buffer A were added to the test well to make a final concentration of 1 μM NAM, 100 μM 5-Phospho-D-ribose 1-diphosphate (PRPP), and 2.5 mM Adenosine 5′-triphosphate (ATP). The reaction was allowed to proceed for 30 minutes at room temperature, then was quenched with the addition of 11 μL of a solution of formic acid and L-Cystathionine to make a final concentration of 1% formic acid and 10 μM L-Cystathionine. Background and signal strength was determined by addition (or non-addition) of a serial dilution of NMN to a pre-quenched enzyme and cofactor mix.
A mass spectrometry-based assay was used to measure the Nampt reaction product (NMN) and the internal control (L-Cystathionine). NMN and L-Cystathionine were detected using the services of Biocius Lifesciences with the RapidFire system. In short, the NMN and L-Cystathionine are bound to a graphitic carbon cartridge in 0.1% formic acid, eluted in 30% acetonitrile buffer, and injected into a Sciex 4000 mass spectrometer. The components of the sample were ionized with electrospray ionization and the positive ions were detected. […] The fragments are quantified and the analyzed by the following method.
First the NMN signal is normalized to the L-Cystathionine signal by dividing the NMN signal by the L-Cystathionine signal for each well. The signal from the background wells are averaged and subtracted from the test plates.
Wherein x denotes the average signal of the compound treated wells and y denotes the average signal of the DMSO treated wells.
IC50s are Determined Using Excel and this Formula.
Wherein X denotes the compound concentration 1, Y denotes the compound concentration 2, XX denotes the % inhibition at compound concentration 1 (X), and YY denotes the % inhibition at compound concentration 2 (Y).

T1 sequence (P43490 whole entry): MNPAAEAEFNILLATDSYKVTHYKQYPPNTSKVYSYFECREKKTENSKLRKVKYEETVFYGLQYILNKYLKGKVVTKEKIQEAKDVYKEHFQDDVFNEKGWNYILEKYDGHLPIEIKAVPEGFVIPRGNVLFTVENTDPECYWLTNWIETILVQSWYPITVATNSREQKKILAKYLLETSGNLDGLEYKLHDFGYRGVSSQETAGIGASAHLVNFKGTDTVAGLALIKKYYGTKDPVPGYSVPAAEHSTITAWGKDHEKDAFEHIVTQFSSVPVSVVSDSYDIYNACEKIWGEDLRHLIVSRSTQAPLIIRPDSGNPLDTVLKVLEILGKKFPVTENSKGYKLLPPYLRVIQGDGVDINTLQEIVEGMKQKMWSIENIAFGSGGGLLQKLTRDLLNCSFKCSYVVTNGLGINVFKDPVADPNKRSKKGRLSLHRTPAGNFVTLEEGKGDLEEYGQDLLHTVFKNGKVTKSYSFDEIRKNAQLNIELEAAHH

In order of rising IC50:
1. O=C(NCc1ccc(S(=O)(=O)c2ccc(C(=O)N3CCCC3)cc2)cc1)c1cc2ccncc2s1 [N-{[4-({4-[(pyrrolidin-1-yl)carbonyl]benzene}sulfonyl)phenyl]methyl}thieno[2,3-c]pyridine-2-carboxamide]  3.7 nM
2. O=C(NCCCCC1CCN(C(=O)c2ccccc2Cl)CC1)c1ccc2nccn2c1 [N-(4-{1-[(2-chlorophenyl)carbonyl]piperidin-4-yl}butyl)imidazo[1,2-a]pyridine-6-carboxamide]  5 nM
3. CC(C)c1ncoc1C(=O)N1CCC(CCCCNC(=O)c2cc3ccncc3s2)CC1 [N-[4-(1-{[4-(propan-2-yl)-1,3-oxazol-5-yl]carbonyl}piperidin-4-yl)butyl]thieno[2,3-c]pyridine-2-carboxamide]  7.4 nM
4. O=C(NCCCCC1CCN(C(=O)c2ccc3nccn3c2)CC1)c1ccc2nccn2c1 [N-{4-[1-({imidazo[1,2-a]pyridin-6-yl}carbonyl)piperidin-4-yl]butyl}imidazo[1,2-a]pyridine-6-carboxamide]  8.5 nM
5. Cn1cc(CC(=O)N2CCC(CCCCNC(=O)c3cc4cnccc4[nH]3)CC2)c2ccccc21 [N-(4-{1-[2-(1-methyl-1H-indol-3-yl)acetyl]piperidin-4-yl}butyl)-1H-pyrrolo[3,2-c]pyridine-2-carboxamide]  9.1 nM
6. O=C(NCCCCC1CCN(C(=O)c2cc(F)ccc2F)CC1)c1cc2cnccc2[nH]1 [N-(4-{1-[(2,5-difluorophenyl)carbonyl]piperidin-4-yl}butyl)-1H-pyrrolo[3,2-c]pyridine-2-carboxamide]  10.3 nM
7. O=C(NCCCCC1CCN(C(=O)c2ccccc2Cl)CC1)c1cc2cnccc2[nH]1 [N-(4-{1-[(2-chlorophenyl)carbonyl]piperidin-4-yl}butyl)-1H-pyrrolo[3,2-c]pyridine-2-carboxamide]  15.8 nM
8. O=C(NCc1ccc(S(=O)(=O)c2ccc(C(=O)N3CCCC3)cc2)cc1)c1cnc2[nH]ncc2c1 [N-{[4-({4-[(pyrrolidin-1-yl)carbonyl]benzene}sulfonyl)phenyl]methyl}-1H-pyrazolo[3,4-b]pyridine-5-carboxamide]  15.8 nM
9. COCc1ccc(C(=O)N2CCC(CCCCNC(=O)c3cc4ccncc4s3)CC2)nc1 [N-[4-(1-{[5-(methoxymethyl)pyridin-2-yl]carbonyl}piperidin-4-yl)butyl]thieno[2,3-c]pyridine-2-carboxamide]  18.3 nM
10. COc1ccc(F)cc1S(=O)(=O)N1CCC(CCCCNC(=O)c2cc3cnccc3[nH]2)CC1 [N-(4-{1-[(5-fluoro-2-methoxybenzene)sulfonyl]piperidin-4-yl}butyl)-1H-pyrrolo[3,2-c]pyridine-2-carboxamide]  23.2 nM
11. O=C(NCCCCC1CN(C(=O)c2ccccc2)C1)c1cc2cnccc2[nH]1 [N-[4-(1-benzoylazetidin-3-yl)butyl]-1H-pyrrolo[3,2-c]pyridine-2-carboxamide]  23.2 nM
12. O=C(NCCCOC1CCN(C(=O)c2ccccc2F)CC1)c1cc2cnccc2[nH]1 [N-(3-((1-(2-fluorobenzoyl)piperidin-4-yl)oxy)propyl)-1H-pyrrolo[3,2-c]pyridine-2-carboxamide]  35 nM
13. Cc1oncc1S(=O)(=O)N1CCC(CCCCNC(=O)c2cc3cnccc3[nH]2)CC1 [N-{4-[1-(5-methyl-1,2-oxazole-4-sulfonyl)piperidin-4-yl]butyl}-1H-pyrrolo[3,2-c]pyridine-2-carboxamide]  36.7 nM
14. Cc1ccc(C(=O)N2CCC(CCCCNC(=O)c3ccc4nccn4c3)CC2)cc1F [N-(4-{1-[(3-fluoro-4-methylphenyl)carbonyl]piperidin-4-yl}butyl)imidazo[1,2-a]pyridine-6-carboxamide]  39.4 nM
15. O=C(NCCCCC1CCN(C(=O)c2csc(-c3ccccc3)n2)CC1)c1ccc2nccn2c1 [N-(4-{1-[(2-phenyl-1,3-thiazol-4-yl)carbonyl]piperidin-4-yl}butyl)imidazo[1,2-a]pyridine-6-carboxamide]  52.3 nM
16. O=C(NCCCCC1CCN(C(=O)c2cc3cc(F)ccc3[nH]2)CC1)c1ccc2nccn2c1 [N-(4-{1-[(5-fluoro-1H-indol-2-yl)carbonyl]piperidin-4-yl}butyl)imidazo[1,2-a]pyridine-6-carboxamide]  71.3 nM
17. O=C(NCCCCC1CCN(C(=O)c2ccc(C(F)(F)F)cn2)CC1)c1ccc2nccn2c1 [N-[4-(1-{[5-(trifluoromethyl)pyridin-2-yl]carbonyl}piperidin-4-yl)butyl]imidazo[1,2-a]pyridine-6-carboxamide]  82.3 nM
18. O=C(NCCCC1CCN(C(=O)c2ccccc2)CC1)c1cc2cnccc2[nH]1 [N-(3-(1-benzoylpiperidin-4-yl)propyl)-1H-pyrrolo[3,2-c]pyridine-2-carboxamide]  126 nM

Test system: A2780 cells
Test: In-vitro cell proliferation assay (SRB, 72 hours)
Type: cell-based
Conditions: Homo sapiens, sulforhodamine B (SRB) assay
Procedure: In-Vitro Cell Proliferation Assay
After overnight incubation at 37° C. and 5% CO2, the compound titrations were performed in a separate dilution plate by serially diluting the compounds in DMSO to make a 1000× stock. The compounds were then further diluted to 10× final concentration in culture media, whereupon 20 μL of each dilution was added to the plated cells with controls (e.g. DMSO and blank) to make a final volume of 200 μL. The final DMSO concentration in each well was 0.1%. The plates were then incubated for 72 hours at 37° C. in a 5% CO2 incubator. The number of viable cells was then assessed using sulforhodamine B (SRB) assay. Cells were fixed at 4° C. for 1 hour with the addition of 50 μL 30% trichloroacetic acid (TCA) to make a final concentration of 6% TCA. The plates were washed four times with H2O and allowed to dry for at least 1 hour, whereupon 100 μL of a 4% SRB in 1% acetic acid solution was added to each well and incubated at room temperature for at least 30 minutes. The plates were then washed three times with 1% acetic acid, dried, and treated with 100 μL of 10 mM Tris-Base solution. The plates were then read in a microplate reader at an absorbance of 570 nm. Background was generated on a separate plate with media only.
Method for Determining % Inhibition
First, the signals from the background plate are averaged, then the background was subtracted from the test plates.
wherein x denotes the average signal of the compound-treated cells and y denotes the average signal of the DMSO-treated cells.
wherein X denotes the compound concentration 1, Y denotes the compound concentration 2, XX denotes the % inhibition at compound concentration 1 (X), and YY denotes the % inhibition at compound concentration 2 (Y).

In order of rising IC50:
1. O=C(NCCCCC1CCN(C(=O)c2cc(F)ccc2F)CC1)c1cc2ccncc2s1 [N-(4-{1-[(2,5-difluorophenyl)carbonyl]piperidin-4-yl}butyl)thieno[2,3-c]pyridine-2-carboxamide]  1.6 nM
2. COc1cc(OC)cc(C(=O)N2CCC(CCCCNC(=O)c3ccc4nccn4c3)CC2)c1 [N-(4-{1-[(3,5-dimethoxyphenyl)carbonyl]piperidin-4-yl}butyl)imidazo[1,2-a]pyridine-6-carboxamide]  2.8 nM
3. COc1ccc(Cl)cc1C(=O)N1CCC(CCCCNC(=O)c2cc3cnccc3[nH]2)CC1 [N-(4-{1-[(5-chloro-2-methoxyphenyl)carbonyl]piperidin-4-yl}butyl)-1H-pyrrolo[3,2-c]pyridine-2-carboxamide]  3.3 nM
4. COc1cccc(C(=O)N2CCC(CCCCNC(=O)c3cc4cnccc4[nH]3)CC2)c1 [N-(4-{1-[(3-methoxyphenyl)carbonyl]piperidin-4-yl}butyl)-1H-pyrrolo[3,2-c]pyridine-2-carboxamide]  3.8 nM
5. COc1cccc(C(=O)N2CCC(CCCCNC(=O)c3ccc4nccn4c3)CC2)c1 [N-(4-{1-[(3-methoxyphenyl)carbonyl]piperidin-4-yl}butyl)imidazo[1,2-a]pyridine-6-carboxamide]  6.6 nM
6. Cn1cc(CC(=O)N2CCC(CCCCNC(=O)c3cc4cnccc4[nH]3)CC2)c2ccccc21 [N-(4-{1-[2-(1-methyl-1H-indol-3-yl)acetyl]piperidin-4-yl}butyl)-1H-pyrrolo[3,2-c]pyridine-2-carboxamide]  11.2 nM
7. O=C(NCCCCC1CCN(C(=O)c2cccc(Cl)c2)CC1)c1cc2cnccc2[nH]1 [N-(4-{1-[(3-chlorophenyl)carbonyl]piperidin-4-yl}butyl)-1H-pyrrolo[3,2-c]pyridine-2-carboxamide]  11.9 nM
8. Cc1cccc(C(=O)N2CCC(CCCCNC(=O)c3cc4ccncc4s3)CC2)c1F [N-(4-{1-[(2-fluoro-3-methylphenyl)carbonyl]piperidin-4-yl}butyl)thieno[2,3-c]pyridine-2-carboxamide]  12.6 nM
9. O=C(NCCCCC1CCN(C(=O)c2ccc(F)cc2)CC1)c1cc2cnccc2[nH]1 [N-(4-{1-[(4-fluorophenyl)carbonyl]piperidin-4-yl}butyl)-1H-pyrrolo[3,2-c]pyridine-2-carboxamide]  14.7 nM
10. O=C(NCCCCC1CCN(C(=O)c2ccc(-n3cccn3)cc2)CC1)c1ccc2nccn2c1 [N-[4-(1-{[4-(1H-pyrazol-1-yl)phenyl]carbonyl}piperidin-4-yl)butyl]imidazo[1,2-a]pyridine-6-carboxamide]  67.1 nM
11. O=C(NCCCOC1CCN(C(=O)c2ccccc2F)CC1)c1cc2cnccc2[nH]1 [N-(3-((1-(2-fluorobenzoyl)piperidin-4-yl)oxy)propyl)-1H-pyrrolo[3,2-c]pyridine-2-carboxamide]  177 nM
12. O=C(NCCCC1CCN(C(=O)c2ccccc2)CC1)c1cc2cnccc2[nH]1 [N-(3-(1-benzoylpiperidin-4-yl)propyl)-1H-pyrrolo[3,2-c]pyridine-2-carboxamide]  432 nM
13. O=C(NCCc1ccc(OCc2ccccc2)cc1)c1cc2cnccc2[nH]1 [N-(4-(benzyloxy)phenethyl)-1H-pyrrolo[3,2-c]pyridine-2-carboxamide]  2000 nM
